Measurements reported in patent publication US10414811B2, “Protease-resistant lipidated GLP-1 analogs” (MEDIMMUNE LIMITED, priority 2015, dated 2019).
Where two headings read alike, the source gives them in different places.

Key:
Type in all cases: cell-based
[1] = biological target: T1, human GLP-1 receptor (GLP-1R) (Homo sapiens, UniProt P43220); experiment: cAMP assay, human GLP-1R cells
T1 construct: expressed in transfected cells
Summary of the method: (§1)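 Peptide-stimulated cAMP measured by two-step HTRF after a 30 min room-temperature incubation with receptor-expressing cells (hGLP-1R, hGIPR at 1×10^5 cells/ml; hGCGR at 2×10^5 cells/ml). Duplicate dilutions; EC50 from 4-parameter logistic fit of % Delta F.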

[2] = biological target: T2, human glucagon receptor (GCGR) (Homo sapiens, UniProt P47871); experiment: cAMP assay, human GCGR cells
T2 construct: expressed in transfected cells
T2 sequence (P47871 26-477): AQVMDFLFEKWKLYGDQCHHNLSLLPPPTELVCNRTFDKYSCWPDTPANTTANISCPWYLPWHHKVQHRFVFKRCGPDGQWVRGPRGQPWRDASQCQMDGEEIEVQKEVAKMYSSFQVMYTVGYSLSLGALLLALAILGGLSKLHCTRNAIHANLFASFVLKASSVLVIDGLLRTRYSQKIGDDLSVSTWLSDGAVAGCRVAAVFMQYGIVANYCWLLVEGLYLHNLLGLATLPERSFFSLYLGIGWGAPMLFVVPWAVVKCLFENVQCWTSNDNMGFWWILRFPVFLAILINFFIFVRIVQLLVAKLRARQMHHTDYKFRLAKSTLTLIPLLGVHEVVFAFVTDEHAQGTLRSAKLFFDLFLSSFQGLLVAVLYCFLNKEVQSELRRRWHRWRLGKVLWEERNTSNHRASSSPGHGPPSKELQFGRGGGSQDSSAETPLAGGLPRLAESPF
Summary of the method: as §1

[3] = biological target: T3, human glucose-dependent insulinotropic peptide receptor (GIPR) (Homo sapiens, UniProt P48546); experiment: cAMP assay, human GIPR cells
T3 construct: expressed in transfected cells
T3 sequence (P48546 22-466): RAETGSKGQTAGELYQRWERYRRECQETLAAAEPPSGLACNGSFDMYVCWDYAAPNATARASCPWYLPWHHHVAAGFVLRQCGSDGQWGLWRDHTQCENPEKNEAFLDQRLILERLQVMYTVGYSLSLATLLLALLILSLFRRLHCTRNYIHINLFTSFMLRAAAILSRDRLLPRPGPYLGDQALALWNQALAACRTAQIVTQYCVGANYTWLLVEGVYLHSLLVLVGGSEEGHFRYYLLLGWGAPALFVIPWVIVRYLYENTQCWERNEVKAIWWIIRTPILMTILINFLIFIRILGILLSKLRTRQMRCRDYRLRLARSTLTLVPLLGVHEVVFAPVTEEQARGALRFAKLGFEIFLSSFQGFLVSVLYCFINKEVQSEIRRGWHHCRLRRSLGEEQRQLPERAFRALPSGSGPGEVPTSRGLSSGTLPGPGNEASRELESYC
Summary of the method: as §1

[4] = cAMP assay, first determination (n1), read-out: Primary assay EC50 GLP-1R n1
[5] = cAMP assay, second determination (n2), read-out: Primary assay EC50 GLP-1R n2
[6] = mean of n1 and n2, read-out: Mean pM GLP-1R
[7] = cAMP assay, first determination (n1), read-out: Primary assay EC50 Gluc-R (n1)
[8] = cAMP assay, second determination (n2), read-out: Primary assay EC50 Gluc-R (n2)
[9] = cAMP assay, first determination (n1), read-out: Primary assay EC50 GIP-R (n1)
[10] = cAMP assay, second determination (n2), read-out: Primary assay EC50 GIP-R (n2)

T1 sequence (P43220 24-463): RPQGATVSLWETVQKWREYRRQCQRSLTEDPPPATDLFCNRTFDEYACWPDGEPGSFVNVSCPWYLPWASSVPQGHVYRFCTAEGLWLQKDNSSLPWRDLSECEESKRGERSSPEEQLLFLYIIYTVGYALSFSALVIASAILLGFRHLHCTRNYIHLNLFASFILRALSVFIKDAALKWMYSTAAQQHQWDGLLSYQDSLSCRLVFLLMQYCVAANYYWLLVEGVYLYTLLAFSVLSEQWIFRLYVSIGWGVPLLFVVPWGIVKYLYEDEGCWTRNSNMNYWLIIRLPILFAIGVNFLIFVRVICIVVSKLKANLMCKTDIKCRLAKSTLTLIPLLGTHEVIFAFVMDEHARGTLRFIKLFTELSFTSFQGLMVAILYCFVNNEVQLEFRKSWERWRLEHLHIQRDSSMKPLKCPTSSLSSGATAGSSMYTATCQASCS

| EC50 [1, 4] [pM] | EC50 [1, 5] [pM] | EC50 [1, 6] [pM] | EC50 [2, 7] [nM] | EC50 [2, 8] [nM] | EC50 [3, 9] [nM] | EC50 [3, 10] [nM] | EC50 ([1]; first run (n1), cAMP activity, read-out: Primary assay EC50 GLP-1R n1) [pM] | EC50 ([1]; second run (n2), cAMP activity, read-out: Primary assay EC50 GLP-1R n2) [pM] | EC50 ([2]; first run (n1), cAMP activity of substituted and mono-lipidated peptides, read-out: Primary assay EC50 Gluc-R) [nM] | EC50 ([2]; second run (n2), cAMP activity, read-out: Primary assay EC50 Gluc-R) [nM] | EC50 ([3]; first run (n1), cAMP activity, read-out: Primary assay EC50 GIP-R) [nM] | EC50 ([3]; second run (n2), cAMP activity, read-out: Primary assay EC50 GIP-R) [nM] | SMILES |
| --- | --- | --- | --- | --- | --- | --- | --- | --- | --- | --- | --- | --- | --- |
| 130 | 52 | 89.9 | ≥ 28 | ≥ 28 | ≥ 28 | ≥ 28 | – | – | – | – | – | – | CCCCCCCCCCCCCCCCCC(=O)N[C@@H](CCC(=O)NCCCC[C@H](NC(=O)[C@@H](NC(=O)[C@@H](NC(=O)[C@](C)(Cc1ccccc1)NC(=O)[C@H](C)NC(=O)[C@@H](NC(=O)[C@](C)(Cc1ccccc1)NC(=O)[C@H](CCC(=O)O)NC(=O)[C@](C)(CCCCN)NC(=O)[C@H](C)NC(=O)[C@H](C)NC(=O)[C@H](CCC(=O)O)NC(=O)CNC(=O)[C@H](CCC(=O)O)NC(=O)[C@H](CC(C)C)NC(=O)[C@](C)(Cc1ccccc1)NC(=O)[C@H](CO)NC(=O)[C@](C)(CO)NC(=O)[C@@H](NC(=O)[C@H](CC(=O)O)NC(=O)[C@H](CO)NC(=O)[C@@H](NC(=O)[C@](C)(Cc1ccccc1)NC(=O)[C@H](CO)NC(=O)CNC(=O)[C@H](CCC(=O)O)NC(=O)C(C)(C)NC(=O)[C@@H](N)Cc1c[nH]cn1)[C@@H](C)O)C(C)C)[C@@H](C)CC)C(C)C)C(C)C)C(=O)NCC(=O)NCC(N)=O)C(=O)O [compound 182] |
| 64 | 18 | 40.9 | ≥ 27 | ≥ 27 | ≥ 27 | ≥ 27 | – | – | – | – | – | – | CCCCCCCCCCCCCCCCCC(=O)N[C@@H](CCC(=O)N[C@@H](CCC(=O)NCCCC[C@H](NC(=O)[C@@H](NC(=O)[C@@H](NC(=O)[C@](C)(Cc1ccccc1)NC(=O)[C@H](C)NC(=O)[C@@H](NC(=O)[C@](C)(Cc1ccccc1)NC(=O)[C@H](CCC(=O)O)NC(=O)[C@](C)(CCCCN)NC(=O)[C@H](C)NC(=O)[C@H](C)NC(=O)[C@H](CCC(=O)O)NC(=O)CNC(=O)[C@H](CCC(=O)O)NC(=O)[C@H](CC(C)C)NC(=O)[C@](C)(Cc1ccccc1)NC(=O)[C@H](CO)NC(=O)[C@](C)(CO)NC(=O)[C@@H](NC(=O)[C@H](CC(=O)O)NC(=O)[C@H](CO)NC(=O)[C@@H](NC(=O)[C@](C)(Cc1ccccc1)NC(=O)[C@H](CO)NC(=O)CNC(=O)[C@H](CCC(=O)O)NC(=O)C(C)(C)NC(=O)[C@@H](N)Cc1c[nH]cn1)[C@@H](C)O)C(C)C)[C@@H](C)CC)C(C)C)C(C)C)C(=O)NCC(=O)NCC(N)=O)C(=O)O)C(=O)O [compound 183] |
| 380 | 120 | 251 | ≥ 28 | ≥ 28 | ≥ 28 | ≥ 28 | – | – | – | – | – | – | CCCCCCCCCCCCCCCCCC(=O)NCCCCCC(=O)NCCCC[C@H](NC(=O)[C@@H](NC(=O)[C@@H](NC(=O)[C@](C)(Cc1ccccc1)NC(=O)[C@H](C)NC(=O)[C@@H](NC(=O)[C@](C)(Cc1ccccc1)NC(=O)[C@H](CCC(=O)O)NC(=O)[C@](C)(CCCCN)NC(=O)[C@H](C)NC(=O)[C@H](C)NC(=O)[C@H](CCC(=O)O)NC(=O)CNC(=O)[C@H](CCC(=O)O)NC(=O)[C@H](CC(C)C)NC(=O)[C@](C)(Cc1ccccc1)NC(=O)[C@H](CO)NC(=O)[C@](C)(CO)NC(=O)[C@@H](NC(=O)[C@H](CC(=O)O)NC(=O)[C@H](CO)NC(=O)[C@@H](NC(=O)[C@](C)(Cc1ccccc1)NC(=O)[C@H](CO)NC(=O)CNC(=O)[C@H](CCC(=O)O)NC(=O)C(C)(C)NC(=O)[C@@H](N)Cc1c[nH]cn1)[C@@H](C)O)C(C)C)[C@@H](C)CC)C(C)C)C(C)C)C(=O)NCC(=O)NCC(N)=O [compound 185] |
| 130 | 50 | 87.5 | ≥ 27 | ≥ 27 | ≥ 27 | ≥ 27 | – | – | – | – | – | – | CCCCCCCCCCCCCCCCCC(=O)NCCCCCC(=O)NCCCCCC(=O)NCCCC[C@H](NC(=O)[C@@H](NC(=O)[C@@H](NC(=O)[C@](C)(Cc1ccccc1)NC(=O)[C@H](C)NC(=O)[C@@H](NC(=O)[C@](C)(Cc1ccccc1)NC(=O)[C@H](CCC(=O)O)NC(=O)[C@](C)(CCCCN)NC(=O)[C@H](C)NC(=O)[C@H](C)NC(=O)[C@H](CCC(=O)O)NC(=O)CNC(=O)[C@H](CCC(=O)O)NC(=O)[C@H](CC(C)C)NC(=O)[C@](C)(Cc1ccccc1)NC(=O)[C@H](CO)NC(=O)[C@](C)(CO)NC(=O)[C@@H](NC(=O)[C@H](CC(=O)O)NC(=O)[C@H](CO)NC(=O)[C@@H](NC(=O)[C@](C)(Cc1ccccc1)NC(=O)[C@H](CO)NC(=O)CNC(=O)[C@H](CCC(=O)O)NC(=O)C(C)(C)NC(=O)[C@@H](N)Cc1c[nH]cn1)[C@@H](C)O)C(C)C)[C@@H](C)CC)C(C)C)C(C)C)C(=O)NCC(=O)NCC(N)=O [compound 186] |
| 64 | 31 | 47.4 | ≥ 26 | ≥ 26 | ≥ 26 | ≥ 26 | – | – | – | – | – | – | CCCCCCCCCCCCCCCCCC(=O)NCCCCCC(=O)NCCCCCC(=O)NCCCCCC(=O)NCCCC[C@H](NC(=O)[C@@H](NC(=O)[C@@H](NC(=O)[C@](C)(Cc1ccccc1)NC(=O)[C@H](C)NC(=O)[C@@H](NC(=O)[C@](C)(Cc1ccccc1)NC(=O)[C@H](CCC(=O)O)NC(=O)[C@](C)(CCCCN)NC(=O)[C@H](C)NC(=O)[C@H](C)NC(=O)[C@H](CCC(=O)O)NC(=O)CNC(=O)[C@H](CCC(=O)O)NC(=O)[C@H](CC(C)C)NC(=O)[C@](C)(Cc1ccccc1)NC(=O)[C@H](CO)NC(=O)[C@](C)(CO)NC(=O)[C@@H](NC(=O)[C@H](CC(=O)O)NC(=O)[C@H](CO)NC(=O)[C@@H](NC(=O)[C@](C)(Cc1ccccc1)NC(=O)[C@H](CO)NC(=O)CNC(=O)[C@H](CCC(=O)O)NC(=O)C(C)(C)NC(=O)[C@@H](N)Cc1c[nH]cn1)[C@@H](C)O)C(C)C)[C@@H](C)CC)C(C)C)C(C)C)C(=O)NCC(=O)NCC(N)=O [compound 187] |
| – | – | 182 | – | – | – | – | 250 | 110 | ≥ 28 | ≥ 28 | ≥ 28 | ≥ 28 | CC[C@H](C)[C@H](NC(=O)[C@](C)(Cc1ccccc1)NC(=O)[C@H](CCC(=O)O)NC(=O)[C@](C)(CCCCN)NC(=O)[C@H](C)NC(=O)[C@H](C)NC(=O)[C@H](CCC(=O)O)NC(=O)CNC(=O)[C@H](CCC(=O)O)NC(=O)[C@H](CC(C)C)NC(=O)[C@](C)(Cc1ccccc1)NC(=O)[C@H](CO)NC(=O)[C@](C)(CO)NC(=O)[C@@H](NC(=O)[C@H](CC(=O)O)NC(=O)[C@H](CO)NC(=O)[C@@H](NC(=O)[C@](C)(Cc1ccccc1)NC(=O)[C@H](CO)NC(=O)CNC(=O)[C@H](CCC(=O)O)NC(=O)C(C)(C)NC(=O)[C@@H](N)Cc1c[nH]cn1)[C@@H](C)O)C(C)C)C(=O)N[C@@H](C)C(=O)N[C@@](C)(Cc1ccccc1)C(=O)N[C@H](C(=O)N[C@H](C(=O)N[C@@H](CCCCNC(=O)CC[C@H](NC(=O)CCCCCCCCCCCCCCCCC(=O)O)C(=O)O)C(=O)NCC(=O)NCC(N)=O)C(C)C)C(C)C [compound 191] |
